Reference: ChEMBL document CHEMBL4828735, “Discovery of N-((3S,4S)-4-(3,4-Difluorophenyl)piperidin-3-yl)-2-fluoro-4-(1-methyl-1H-pyrazol-5-yl)benzamide (Hu7691), a Potent and Selective Akt Inhibitor That Enables Decrease of Cutaneous Toxicity” (J Med Chem, 2021)
The source made the active and inactive calls. The rule behind the calls is not given here.

Legend:
[1] = Oral bioavailability in Sprague-Dawley rat measured upto 72 hrs by LC-MS/MS analysis; type: ADME, organism-based; settings: in vivo
[2] = Toxicity in mouse assessed as maximum toxicity dose; settings: in vivo
Cytochrome P450 3A4 = Cytochrome P450 3A4 (Homo sapiens, UniProt P08684); experiment: Inhibition of CYP3A4 (unknown origin); type: ADME
HGC-27 = experiment: Antiproliferative activity against human HGC-27 cells assessed as inhibition of cell growth incubated for 72 hrs by SRB assay; type: functional, cell-based; settings: HGC-27, 72 h
[3] = target: Ribosomal protein S6 kinase alpha-1 (Homo sapiens, UniProt Q15418); experiment: Inhibition of RSK1 (unknown origin)
KHOS/NP [4] = experiment: Antiproliferative activity against human KHOS cells assessed as inhibition of cell growth incubated for 72 hrs by SRB assay; type: functional, cell-based
[5] = Toxicity in mouse assessed as prone posture at 150 mg/kg; type: organism-based; settings: in vivo
A549 = experiment: Antiproliferative activity against human A549 cells assessed as inhibition of cell growth incubated for 72 hrs by SRB method; type: functional, cell-based; settings: A549, 72 h
[6] = Microsomal stability in monkey liver microsomes assessed as half life at 50 uM preincubated for 5 mins with NADPH followed by compound addition and measured upto 60 mins by LC-MS/MS analysis; type: ADME, Macaca mulatta, Microsome; settings: rhesus monkey
Homo sapiens = organism: Homo sapiens; experiment: Inhibition of PKG (unknown origin) at 0.5 uM
[7] = Drug metabolism in po dosed Sprague-Dawley rat urine assessed as M1 metabolite formation measured upto 72 hrs by UPLC-TOF-MS/MS analysis; type: ADME, organism-based; settings: in vivo
[8] = Toxicity in Sprague-Dawley rat assessed as effect on spleen at 25 to 75 mg/kg administered daily for 4 weeks by histopathological analysis; type: organism-based; settings: in vivo, 672 h, dose 25-75 mg/kg
[9] = target: Mitogen-activated protein kinase 9 (Homo sapiens, UniProt P45984); experiment: Inhibition of JNK2 (unknown origin)
[10] = Microsomal stability in human liver microsomes assessed as half life at 50 uM preincubated for 5 mins with NADPH followed by compound addition and measured upto 60 mins by LC-MS/MS analysis; type: ADME, Microsome
[11] = AUC(0 to t) in Sprague-Dawley rat at 2 mg/kg, iv measured upto 24 hrs by LC-MS/MS analysis; type: ADME, organism-based; design: route intravenous, dose 2 mg/kg, time <=24; settings: in vivo
[12] = Toxicity in Beagle dog assessed as maximum toxicity dose; design: species or system Canis lupus familiaris; settings: in vivo
U-251 = experiment: Antiproliferative activity against human U251 cells assessed as inhibition of cell growth incubated for 72 hrs by SRB method; type: functional, cell-based; settings: U-251, 72 h
[13] = target: Protein kinase C eta type (Homo sapiens, UniProt P24723); experiment: Inhibition of PKCeta (unknown origin)
HaCaT = experiment: Induction of apoptosis in human HaCaT cells assessed as cleaved caspase 3 level at 2.25 to 36 uM after 24 hrs by Western blot analysis; type: cell-based; settings: dose 2.25-36 µM
[14] = Inhibition of PKA (unknown origin); design: species or system Homo sapiens
CYP2C19 = CYP2C19 (Homo sapiens, UniProt P33261); experiment: Inhibition of CYP2C19 (unknown origin) at 100 uM; type: ADME
[15] = Drug metabolism in po dosed Sprague-Dawley rat urine assessed as M3 metabolite formation measured upto 72 hrs by UPLC-TOF-MS/MS analysis; type: ADME, organism-based; settings: in vivo
[16] = Drug metabolism in po dosed Sprague-Dawley rat bile assessed as M4 metabolite formation measured upto 24 hrs by UPLC-TOF-MS/MS analysis; type: ADME, organism-based; settings: in vivo
[17] = Toxicity in Sprague-Dawley rat assessed as increase in body weight at 25 to 50 mg/kg administered daily for 4 weeks; type: organism-based; settings: in vivo, 672 h, dose 25-50 mg/kg
[18] = Toxicity in BALB/c nude mouse xenografted with human KHOS cells assessed as mortality at 12.5 to 50 mg/kg, ig administered once daily for 22 days; type: organism-based; settings: in vivo, po, 528 h, dose 12.5-50 mg/kg, time 22 day
786-0 = experiment: Antiproliferative activity against human 786-0 cells assessed as inhibition of cell growth incubated for 72 hrs by SRB method; type: functional, cell-based; settings: 786-0, 72 h
[19] = Cmax in Sprague-Dawley rat at 2 mg/kg, iv measured upto 24 hrs by LC-MS/MS analysis; type: ADME, organism-based; design: route intravenous, dose 2 mg/kg, time <=24; settings: in vivo
[20] = Toxicity in Sprague-Dawley rat assessed as increase in body weight at 75 mg/kg administered daily for 4 weeks; type: organism-based; settings: in vivo, 672 h
PC-3 = experiment: Antiproliferative activity against human PC3 cells assessed as inhibition of cell growth incubated for 72 hrs by SRB method; type: functional, cell-based; settings: PC-3, 72 h
NCI-H1975 = experiment: Antiproliferative activity against human NCI-H1975 cells assessed as inhibition of cell growth incubated for 72 hrs by SRB method; type: functional, cell-based; settings: NCI-H1975, 72 h
hERG (KCNH2) = hERG (KCNH2) (Homo sapiens, UniProt Q12809); experiment: Inhibition of human ERG expressed in HEK293 cells at 3 uM by whole cell patch clamp method relative to control; type: cell-based; settings: HEK293 cells expressing hERG
[21] = Microsomal stability in human liver microsomes assessed as intrinsic clearance at 50 uM preincubated for 5 mins with NADPH followed by compound addition and measured upto 60 mins by LC-MS/MS analysis; type: ADME, Microsome; settings: read-out: CLH
[22] = Drug metabolism in po dosed Sprague-Dawley rat bile assessed as M3 metabolite formation measured upto 24 hrs by UPLC-TOF-MS/MS analysis; type: ADME, organism-based; settings: in vivo
[23] = AUC(0 to t) in Beagle dog at 20 mg/kg, ig measured upto 96 hrs by LC-MS/MS analysis; type: ADME, organism-based, Canis lupus familiaris; design: route […], dose 20 mg/kg, time <=96; settings: in vivo, po
[24] = Drug metabolism in po dosed Sprague-Dawley rat feces assessed as M5 metabolite formation measured upto 24 hrs by UPLC-TOF-MS/MS analysis; type: ADME, organism-based; settings: in vivo
KHOS/NP [25] = experiment: Antitumor activity against human KHOS cells xenografted in ig dosed BALB/c nude mouse assessed as tumor growth inhibition administered once daily for 22 days; type: functional, organism-based; settings: dose 12.5-50 mg/kg, time 22.0 day
Cytochrome P450 3A5 = Cytochrome P450 3A5 (Homo sapiens, UniProt P20815); experiment: Inhibition of CYP3A5 (unknown origin); type: ADME
[26] = Toxicity in Sprague-Dawley rat assessed as effect on bone marrow at 25 to 75 mg/kg administered daily for 4 weeks by histopathological analysis; type: organism-based; settings: in vivo, 672 h, dose 25-75 mg/kg
[27] = AUC(0 to t) in Sprague-Dawley rat at 15 mg/kg, ig measured upto 72 hrs by LC-MS/MS analysis; type: ADME, organism-based; design: route […], dose 15 mg/kg, time <=72; settings: in vivo, po
[28] = target: Tyrosine-protein kinase JAK2 (Homo sapiens, UniProt O60674); experiment: Inhibition of JAK2 (unknown origin)
Sequence of Tyrosine-protein kinase JAK2 (O60674 whole entry): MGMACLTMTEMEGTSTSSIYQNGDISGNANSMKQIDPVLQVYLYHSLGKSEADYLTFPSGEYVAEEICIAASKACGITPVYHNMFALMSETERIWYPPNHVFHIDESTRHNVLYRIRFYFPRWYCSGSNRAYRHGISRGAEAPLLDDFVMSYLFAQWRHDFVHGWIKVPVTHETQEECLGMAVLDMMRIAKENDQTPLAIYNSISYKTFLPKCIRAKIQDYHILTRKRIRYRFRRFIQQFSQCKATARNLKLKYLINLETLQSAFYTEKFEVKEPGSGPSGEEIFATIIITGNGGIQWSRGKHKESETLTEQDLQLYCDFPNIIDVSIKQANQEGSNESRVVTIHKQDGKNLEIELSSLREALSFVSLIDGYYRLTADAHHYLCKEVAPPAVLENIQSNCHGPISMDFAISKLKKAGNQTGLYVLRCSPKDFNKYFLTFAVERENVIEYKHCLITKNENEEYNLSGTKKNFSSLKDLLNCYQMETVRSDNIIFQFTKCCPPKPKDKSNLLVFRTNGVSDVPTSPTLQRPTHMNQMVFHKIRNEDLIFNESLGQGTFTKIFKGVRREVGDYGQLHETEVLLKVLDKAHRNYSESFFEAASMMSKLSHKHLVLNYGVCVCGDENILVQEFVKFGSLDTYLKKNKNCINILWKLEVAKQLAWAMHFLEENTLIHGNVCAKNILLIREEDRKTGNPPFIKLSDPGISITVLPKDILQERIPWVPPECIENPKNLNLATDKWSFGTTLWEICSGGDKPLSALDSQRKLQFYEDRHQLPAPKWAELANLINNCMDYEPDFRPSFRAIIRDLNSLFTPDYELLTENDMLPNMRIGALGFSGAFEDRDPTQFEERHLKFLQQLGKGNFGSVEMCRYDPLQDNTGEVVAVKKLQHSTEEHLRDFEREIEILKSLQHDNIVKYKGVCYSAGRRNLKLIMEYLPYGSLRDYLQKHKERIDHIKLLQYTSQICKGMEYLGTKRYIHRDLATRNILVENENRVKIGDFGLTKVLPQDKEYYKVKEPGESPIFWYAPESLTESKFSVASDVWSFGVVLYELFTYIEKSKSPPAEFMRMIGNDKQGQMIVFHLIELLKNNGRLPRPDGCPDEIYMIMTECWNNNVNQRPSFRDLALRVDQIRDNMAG

Sequence of Ribosomal protein S6 kinase alpha-1 (Q15418 whole entry): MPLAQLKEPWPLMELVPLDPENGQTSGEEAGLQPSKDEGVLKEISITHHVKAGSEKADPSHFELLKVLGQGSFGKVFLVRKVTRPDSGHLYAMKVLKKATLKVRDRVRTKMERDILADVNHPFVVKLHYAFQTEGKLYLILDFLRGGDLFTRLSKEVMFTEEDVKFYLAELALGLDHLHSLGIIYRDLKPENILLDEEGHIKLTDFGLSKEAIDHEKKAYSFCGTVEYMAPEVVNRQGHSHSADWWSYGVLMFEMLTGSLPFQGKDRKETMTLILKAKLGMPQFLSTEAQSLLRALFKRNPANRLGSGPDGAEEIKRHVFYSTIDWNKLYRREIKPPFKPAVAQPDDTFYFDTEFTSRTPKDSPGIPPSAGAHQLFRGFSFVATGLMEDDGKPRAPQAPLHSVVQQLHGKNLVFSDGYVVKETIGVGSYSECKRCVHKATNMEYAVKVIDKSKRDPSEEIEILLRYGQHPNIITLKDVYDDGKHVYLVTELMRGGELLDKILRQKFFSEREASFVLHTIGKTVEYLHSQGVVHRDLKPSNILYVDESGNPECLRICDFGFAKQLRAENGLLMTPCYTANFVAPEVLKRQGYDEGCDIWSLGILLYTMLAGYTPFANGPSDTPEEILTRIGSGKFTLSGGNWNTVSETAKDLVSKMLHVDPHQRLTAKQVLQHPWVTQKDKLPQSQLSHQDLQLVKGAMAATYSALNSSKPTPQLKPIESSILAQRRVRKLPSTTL
Sequence of Cytochrome P450 3A4 (P08684 whole entry): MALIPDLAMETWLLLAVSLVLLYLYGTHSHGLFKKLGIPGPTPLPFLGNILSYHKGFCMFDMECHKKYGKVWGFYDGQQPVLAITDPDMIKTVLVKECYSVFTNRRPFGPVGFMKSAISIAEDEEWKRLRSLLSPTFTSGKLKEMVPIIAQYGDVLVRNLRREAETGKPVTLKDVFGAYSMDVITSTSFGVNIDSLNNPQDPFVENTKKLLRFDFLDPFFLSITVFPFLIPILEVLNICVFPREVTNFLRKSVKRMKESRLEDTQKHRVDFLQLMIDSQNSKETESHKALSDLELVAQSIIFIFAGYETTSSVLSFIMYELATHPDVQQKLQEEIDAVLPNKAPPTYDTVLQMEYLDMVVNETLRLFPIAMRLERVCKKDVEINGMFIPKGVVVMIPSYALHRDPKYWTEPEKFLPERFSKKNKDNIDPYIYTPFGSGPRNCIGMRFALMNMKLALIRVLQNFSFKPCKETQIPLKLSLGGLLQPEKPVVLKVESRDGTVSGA
Sequence of Cytochrome P450 3A5 (P20815 whole entry): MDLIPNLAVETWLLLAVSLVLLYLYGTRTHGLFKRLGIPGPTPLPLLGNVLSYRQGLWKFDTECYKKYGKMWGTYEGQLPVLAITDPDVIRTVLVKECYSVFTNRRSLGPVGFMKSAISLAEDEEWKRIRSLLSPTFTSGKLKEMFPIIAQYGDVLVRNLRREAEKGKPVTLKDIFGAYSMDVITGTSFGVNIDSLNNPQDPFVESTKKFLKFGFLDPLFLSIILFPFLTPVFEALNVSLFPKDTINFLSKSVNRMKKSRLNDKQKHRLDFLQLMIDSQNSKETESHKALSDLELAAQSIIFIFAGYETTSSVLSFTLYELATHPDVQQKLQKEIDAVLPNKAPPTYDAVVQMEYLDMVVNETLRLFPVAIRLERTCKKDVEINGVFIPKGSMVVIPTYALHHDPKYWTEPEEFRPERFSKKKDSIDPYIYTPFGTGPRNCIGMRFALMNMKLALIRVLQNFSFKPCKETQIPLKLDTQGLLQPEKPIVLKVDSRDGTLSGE
Sequence of Mitogen-activated protein kinase 9 (P45984 whole entry): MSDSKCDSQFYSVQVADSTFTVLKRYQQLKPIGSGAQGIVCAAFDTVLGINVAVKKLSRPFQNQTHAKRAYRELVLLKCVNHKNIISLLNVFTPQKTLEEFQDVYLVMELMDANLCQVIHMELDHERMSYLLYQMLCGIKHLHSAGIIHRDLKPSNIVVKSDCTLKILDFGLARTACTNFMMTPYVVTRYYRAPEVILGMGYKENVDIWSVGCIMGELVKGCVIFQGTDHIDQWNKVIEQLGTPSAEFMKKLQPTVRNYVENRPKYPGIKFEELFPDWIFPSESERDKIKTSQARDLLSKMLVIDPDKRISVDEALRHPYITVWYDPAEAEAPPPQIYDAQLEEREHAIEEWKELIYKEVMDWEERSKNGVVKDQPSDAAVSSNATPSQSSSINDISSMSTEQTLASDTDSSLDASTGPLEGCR
Sequence of CYP2C19 (P33261 whole entry): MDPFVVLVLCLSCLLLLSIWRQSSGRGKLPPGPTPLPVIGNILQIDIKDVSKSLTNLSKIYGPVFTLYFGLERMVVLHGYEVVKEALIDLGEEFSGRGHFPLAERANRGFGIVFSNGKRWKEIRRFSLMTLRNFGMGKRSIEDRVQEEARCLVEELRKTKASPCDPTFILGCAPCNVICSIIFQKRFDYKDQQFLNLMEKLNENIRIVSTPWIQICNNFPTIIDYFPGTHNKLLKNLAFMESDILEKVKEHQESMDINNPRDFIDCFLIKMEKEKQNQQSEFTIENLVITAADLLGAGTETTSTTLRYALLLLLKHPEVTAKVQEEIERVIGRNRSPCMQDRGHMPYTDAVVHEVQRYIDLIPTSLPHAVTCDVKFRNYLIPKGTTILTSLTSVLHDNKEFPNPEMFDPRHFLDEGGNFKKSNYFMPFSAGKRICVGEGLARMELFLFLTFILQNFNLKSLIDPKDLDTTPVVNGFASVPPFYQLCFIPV
Sequence of hERG (KCNH2) (Q12809 whole entry): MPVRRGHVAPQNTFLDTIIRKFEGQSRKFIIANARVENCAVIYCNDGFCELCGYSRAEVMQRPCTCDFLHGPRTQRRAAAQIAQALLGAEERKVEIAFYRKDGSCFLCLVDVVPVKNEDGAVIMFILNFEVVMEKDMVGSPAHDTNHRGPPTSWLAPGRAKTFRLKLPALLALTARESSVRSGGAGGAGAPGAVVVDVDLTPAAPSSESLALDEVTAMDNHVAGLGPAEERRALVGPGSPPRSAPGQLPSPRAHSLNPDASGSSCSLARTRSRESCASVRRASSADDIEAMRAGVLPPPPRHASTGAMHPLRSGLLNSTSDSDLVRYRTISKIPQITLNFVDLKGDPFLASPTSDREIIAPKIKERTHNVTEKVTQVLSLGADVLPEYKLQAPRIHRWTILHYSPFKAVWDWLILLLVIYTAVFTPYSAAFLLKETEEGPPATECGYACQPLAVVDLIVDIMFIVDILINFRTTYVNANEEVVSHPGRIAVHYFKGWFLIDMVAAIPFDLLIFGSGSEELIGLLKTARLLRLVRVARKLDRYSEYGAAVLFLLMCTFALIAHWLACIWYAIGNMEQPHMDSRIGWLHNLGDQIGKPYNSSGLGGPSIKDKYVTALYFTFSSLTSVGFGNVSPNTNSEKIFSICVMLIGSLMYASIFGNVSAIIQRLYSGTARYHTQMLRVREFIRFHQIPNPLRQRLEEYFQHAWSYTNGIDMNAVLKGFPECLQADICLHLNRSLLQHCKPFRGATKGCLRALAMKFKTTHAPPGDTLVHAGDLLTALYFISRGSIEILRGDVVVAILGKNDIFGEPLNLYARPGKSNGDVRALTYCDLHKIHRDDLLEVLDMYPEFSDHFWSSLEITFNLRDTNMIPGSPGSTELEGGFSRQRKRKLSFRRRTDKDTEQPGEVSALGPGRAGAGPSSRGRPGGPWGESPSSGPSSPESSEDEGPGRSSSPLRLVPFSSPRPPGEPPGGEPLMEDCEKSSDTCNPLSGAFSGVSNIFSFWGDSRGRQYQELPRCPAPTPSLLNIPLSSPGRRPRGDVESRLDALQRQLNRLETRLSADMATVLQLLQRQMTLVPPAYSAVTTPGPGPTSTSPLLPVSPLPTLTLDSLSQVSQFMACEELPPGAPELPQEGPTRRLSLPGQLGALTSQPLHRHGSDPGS

Cl.Cn1nccc1-c1ccc(C(=O)N[C@@H]2CNCC[C@H]2c2ccc(F)c(F)c2)c(F)c1
bioavailability [1]: 66.2% | MTD [2]: 150 mg/kg | IC50 (Cytochrome P450 3A4): > 100 µM | IC50 (HGC-27): 680 nM | IC50 [3]: 756 nM | IC50 (KHOS/NP [4]): 14.9 µM | Activity [5]: Toxic | IC50 (A549): 6.56 µM | half-life at 50 µM [6]: 102 min | inhibition (Homo sapiens): Active | Drug metabolism [7]: Metabolite_Detected | Activity [8]: Non-Toxic | IC50 [9]: > 10 µM | half-life at 50 µM [10]: 973 min | AUC(0-t) at 24 h [11]: 459 ng·h/mL | MTD [12]: 100 mg/kg | IC50 (U-251): 6.53 µM | IC50 [13]: > 2000 nM | Activity (HaCaT): Non-Toxic | IC50 [14]: 11 nM | inhibition at 100 µM (CYP2C19): 65% | Drug metabolism [15]: Metabolite_Detected | Drug metabolism [16]: Metabolite_Detected | Activity [17]: Toxic | Activity [18]: Non-Toxic | IC50 (786-0): 8.6 µM | Cmax [19]: 208 ng/mL | Activity [20]: Non-Toxic | IC50 (PC-3): 8.74 µM | IC50 (NCI-H1975): 7.56 µM | inhibition at 3 µM (hERG (KCNH2)): 15.9% | microsomal CLint at 50 µM [21]: 1.4 µL/min/mg | Drug metabolism [22]: Metabolite_Detected | AUC(0-t) at 96 h [23]: 33300 ng·h/mL | Drug metabolism [24]: Metabolite_Detected | Activity (KHOS/NP [25]): Dose-Dependent Effect | IC50 (Cytochrome P450 3A5): > 100 µM | Activity [26]: Non-Toxic | AUC(0-t) at 72 h [27]: 2280 ng·h/mL | IC50 [28]: > 10 µM
